Consider 18 compounds from ChEMBL document CHEMBL3871304, “Novel benzothiazine-piperazine derivatives by peptide-coupling as potential anti-proliferative agents” (2017).

Assay type in all cases: functional
The nature of experiment [1]: Growth inhibition of human MiaPaCa cells after 48 hrs by SRB assay. The note with it: MIA PaCa-2, 48 h. On the technique in general: In SRB staining, fixed cells bind dye roughly in proportion to their protein.
Experiment [2] can be described thus: Growth inhibition of human MDA-MB-231 cells after 48 hrs by SRB assay. Particulars: MDA-MB-231, 48 h.
The nature of experiment [3]: Growth inhibition of human HeLa cells after 48 hrs by SRB assay.
Experiment [4] is described as follows: Growth inhibition of human IMR32 cells after 48 hrs by SRB assay. Particulars: IMR-32, 48 h.

Consider `O=C(CCN1C(=O)CSc2ccccc21)NCCCN1CCN(c2ccccc2)CC1`, for which the GI50 in experiment [1] is greater than 100 µM; in experiment [2], less than 0.01 µM; in experiment [3] (read-out: GI50) it was 2.17 µM; in experiment [3] (read-out: pGI50 (converted)), 2.19 µM; in experiment [4] it was greater than 100 µM.

Regarding `O=C(CCN1C(=O)CSc2ccccc21)N1CCN(c2ccc(F)cc2)CC1`, the GI50 in experiment [1] was greater than 100 µM; in experiment [2], 2.2 µM; in experiment [3] (read-out: GI50), 5.4 µM; in experiment [3] (read-out: pGI50 (converted)), 5.37 µM; in experiment [4], 10 µM.

For the compound `COc1ccccc1N1CCN(C(=O)CCN2C(=O)CSc3ccccc32)CC1`, the GI50 in experiment [1] was 34.9 µM; in experiment [2], 6.6 µM; in experiment [3] (read-out: GI50), 11.9 µM; in experiment [3] (read-out: pGI50 (converted)) it was 12 µM; in experiment [4], greater than 100 µM.

Regarding `O=C(CCN1C(=O)CSc2ccccc21)NCCCN1CCC(Cc2ccccc2)CC1`, the GI50 in experiment [1] is greater than 100 µM; in experiment [2], 27.6 µM; in experiment [3] (read-out: GI50), 56.2 µM; in experiment [3] (read-out: pGI50 (converted)), 56.2 µM; in experiment [4], 1.5 µM.

Regarding `O=C(CCN1C(=O)CSc2ccccc21)N1CCN(c2ccccc2F)CC1`, the GI50 in experiment [1] is greater than 100 µM; in experiment [2], 1.6 µM; in experiment [3] (read-out: GI50), 61 µM; in experiment [3] (read-out: pGI50 (converted)), 61.7 µM; in experiment [4] it was greater than 100 µM.

Regarding `O=C(CCN1C(=O)CSc2ccccc21)NCCCN1CCN(c2ccc(C(F)(F)F)cc2)CC1`, the GI50 is greater than 100 µM in experiment [1]; 20.4 µM in experiment [2]; 5.7 µM in experiment [3] (read-out: GI50); 5.75 µM in experiment [3] (read-out: pGI50 (converted)); 1.4 µM in experiment [4].

For the compound `CC(C)(C)OC(=O)N1CCN(C(=O)CCN2C(=O)CSc3ccccc32)CC1`, the GI50 was 51.5 µM in experiment [1]; greater than 100 µM in experiment [2]; greater than 100 µM in experiment [3] (read-out: GI50); 100 µM in experiment [3] (read-out: pGI50 (converted)); greater than 100 µM in experiment [4].

As for `O=C(CCN1C(=O)CSc2ccccc21)NCCCN1CCSCC1`, the GI50 in experiment [1] was 83.3 µM; in experiment [2], 0.63 µM; in experiment [3] (read-out: GI50), 0.12 µM; in experiment [3] (read-out: pGI50 (converted)), 0.12 µM; in experiment [4] it was 0.82 µM.

For `O=C(CCN1C(=O)CSc2ccccc21)N1CCSCC1`, the GI50 was greater than 100 µM in experiment [1]; 6 µM in experiment [2]; 18.5 µM in experiment [3] (read-out: GI50); 18.6 µM in experiment [3] (read-out: pGI50 (converted)); 21.7 µM in experiment [4].

On to `O=C(CCN1C(=O)CSc2ccccc21)NCCCN1CCN(c2ccc([N+](=O)[O-])cc2)CC1`, for which the GI50 in experiment [1] was greater than 100 µM; in experiment [2], greater than 100 µM; in experiment [3] (read-out: GI50), greater than 100 µM; in experiment [3] (read-out: pGI50 (converted)) it was 100 µM; in experiment [4], 0.46 µM.

As to `O=C(CCN1C(=O)CSc2ccccc21)N1CCN(c2ccc([N+](=O)[O-])cc2)CC1`, the GI50 in experiment [1] was 68.1 µM; in experiment [2] it was 5.6 µM; in experiment [3] (read-out: GI50), 8.4 µM; in experiment [3] (read-out: pGI50 (converted)), 8.32 µM; in experiment [4], 0.34 µM.

Turning to `O=C(CCN1C(=O)CSc2ccccc21)N1CCN(c2ccccc2)CC1`, the GI50 is greater than 100 µM in experiment [1]; 5.4 µM in experiment [2]; 41.9 µM in experiment [3] (read-out: GI50); 41.7 µM in experiment [3] (read-out: pGI50 (converted)); less than 0.01 µM in experiment [4].

`O=C(CCN1C(=O)CSc2ccccc21)N1CCC(Cc2ccccc2)CC1`: the GI50 was 56.8 µM in experiment [1]; 3.8 µM in experiment [2]; 17.7 µM in experiment [3] (read-out: GI50); 17.8 µM in experiment [3] (read-out: pGI50 (converted)); 0.1 µM in experiment [4].

Turning to `COc1ccccc1N1CCN(CCCNC(=O)CCN2C(=O)CSc3ccccc32)CC1`, the GI50 in experiment [1] was 59.2 µM; in experiment [2], 2 µM; in experiment [3] (read-out: GI50) it was 0.97 µM; in experiment [3] (read-out: pGI50 (converted)) it was 0.977 µM; in experiment [4], greater than 100 µM.

Consider `O=C(CCN1C(=O)CSc2ccccc21)NCCCN1CCN(c2ccccc2F)CC1`, for which the GI50 in experiment [1] is greater than 100 µM; in experiment [2] it was 4.6 µM; in experiment [3] (read-out: GI50), 1.4 µM; in experiment [3] (read-out: pGI50 (converted)), 1.41 µM; in experiment [4] it was 1.4 µM.

On to `O=C(CCN1C(=O)CSc2ccccc21)N1CCN(c2ccc(C(F)(F)F)cc2)CC1`, for which the GI50 was greater than 100 µM in experiment [1]; 1 µM in experiment [2]; 4.2 µM in experiment [3] (read-out: GI50); 4.17 µM in experiment [3] (read-out: pGI50 (converted)); 46.4 µM in experiment [4].

In the case of `COc1cccc2c1C(=O)c1c(O)c3c(c(O)c1C2=O)C[C@@](O)(C(=O)CO)C[C@@H]3O[C@H]1C[C@H](N)[C@H](O)[C@H](C)O1` [DOXORUBICIN], the GI50 in experiment [1] was 0.095 µM; in experiment [2], 0.073 µM; in experiment [3] (read-out: GI50), 0.083 µM; in experiment [3] (read-out: pGI50 (converted)) it was 0.0832 µM; in experiment [4], 0.025 µM.

For `CC(=O)O[C@H]1C(=O)[C@@]2(C)[C@H]([C@H](OC(=O)c3ccccc3)[C@]3(O)C[C@H](OC(=O)[C@H](O)[C@@H](NC(=O)c4ccccc4)c4ccccc4)C(C)=C1C3(C)C)[C@]1(OC(C)=O)CO[C@@H]1C[C@@H]2O` [PACLITAXEL], the GI50 in experiment [1] was 0.06 µM; in experiment [2], 0.092 µM; in experiment [3] (read-out: GI50), 0.039 µM; in experiment [3] (read-out: pGI50 (converted)), 0.0389 µM; in experiment [4], 0.086 µM.
